Experimental findings from ChEMBL document CHEMBL3045029, “Synthesis and antimicrobial activities of some isoxazolyl thiazolyl pyrazoles” (2012) are described below.

What all share (format): functional
Assay [1] relates to Bacillus subtilis. As to the kind of experiment: Antibacterial activity against Bacillus subtilis MTCC 441 after 24 hr by serial dilution method.
The subject of assay [2] is Escherichia coli. As to the kind of experiment: Antibacterial activity against Escherichia coli MTCC 42 after 24 hr by serial dilution method.
Assay [3] relates to Staphylococcus aureus. Nature of the assay: Antibacterial activity against Staphylococcus aureus MTCC 7443 after 24 hr by serial dilution method.
The test system of assay [4] is Candida albicans. Nature of the assay: Antifungal activity against Candida albicans MTCC 183 after 48 hr by serial dilution method.
The test system of assay [5] is Aspergillus niger. Nature of the assay: Antifungal activity against Aspergillus niger MTCC 282 after 120 hr by serial dilution method.

Take `C/C(=N\Nc1nc(-c2ccccc2)cs1)c1c(O)cc(C)oc1=O`: the “-logMIC” value in assay [1] is 1.435; in assay [2], 1.435; in assay [3], 1.737; in assay [4], 1.435; in assay [5], 1.435.

For `C/C(=N\Nc1nc(-c2ccc(C)cc2)cs1)c1c(O)cc(C)oc1=O`, the “-logMIC” value in assay [1] came to 1.453; in assay [2], 1.453; in assay [3], 1.453; in assay [4] it was 1.152; in assay [5], 1.435.

For the compound `COc1ccc(-c2csc(N/N=C(\C)c3c(O)cc(C)oc3=O)n2)cc1`, the “-logMIC” value in assay [1] is on record as 1.171; in assay [2], 1.472; in assay [3], 1.472; in assay [4], 1.171; in assay [5] it was 1.472.

For `C/C(=N\Nc1nc(-c2ccc(Cl)cc2)cs1)c1c(O)cc(C)oc1=O`, the “-logMIC” value in assay [1], in assay [2], in assay [3], in assay [4] and in assay [5] was 1.478 each time.

Turning to `CC(=O)CC(=O)c1c(C)[nH]n(-c2nc(-c3ccccc3)cs2)c1=O`, the “-logMIC” value in assay [1], in assay [2], in assay [3], in assay [4] and in assay [5] was 1.435 throughout.

With `COc1ccc(-c2csc(-n3[nH]c(C)c(-c4cc(C)no4)c3=O)n2)cc1`, the “-logMIC” value in assay [1] turned out to be 1.771; in assay [2] it was 1.47; in assay [3], 1.771; in assay [4], 1.47; in assay [5] it was 1.771.

Regarding `Cc1cc(-c2c(C)[nH]n(-c3nc(-c4ccc(Cl)cc4)cs3)c2=O)on1`, the “-logMIC” value in assay [1] worked out at 1.775; in assay [2], 1.775; in assay [3], 2.077; in assay [4] it was 1.477; in assay [5], 1.474.

Regarding `Cc1cc(-c2c(C)[nH]n(-c3nc(-c4ccccc4)cs3)c2=O)on1`, the “-logMIC” value in assay [1] is reported as 1.733; in assay [2] it was 1.733; in assay [3], 1.733; in assay [4] it was 1.432; in assay [5], 1.432.

Turning to `Cc1ccc(-c2csc(-n3[nH]c(C)c(-c4cc(C)no4)c3=O)n2)cc1`, the “-logMIC” value in assay [1] stood at 1.75; in assay [2], 1.75; in assay [3] it was 1.75; in assay [4], 1.449; in assay [5], 1.75.

As to `OC(Cn1cncn1)(Cn1cncn1)c1ccc(F)cc1F` [FLUCONAZOLE], the “-logMIC” value in assay [4] and in assay [5] was 3 in each case.

Regarding `CCn1cc(C(=O)O)c(=O)c2cc(F)c(N3CCNCC3)cc21` [NORFLOXACIN], the “-logMIC” value in assay [1], in assay [2] and in assay [3] was 2.698 throughout.
